Data set [1] deals with T1, WsaF (Geobacillus stearothermophilus, UniProt Q7BG50, K78A/K79A/K81A).
T1 construct: recombinant WsaF from pET28a-WsaF in E. coli BL21(DE3) Star; residues M1 to L413 mentioned
The experiment in a line: X-ray crystal structure of soaked complex, […] Å. Type of data set: binding. The settings on record: crystal soaked 5 min in 20 mM dTDP-β-L-Rha; WsaFSER2 (b48 prints K78A/E79A/K81A); authors regard rhamnose ring position as incorrect.

Data set [2] concerns the target T1, WsaF. The experiment in a line: X-ray crystal structure of soaked complex, […] Å. Type of data set: binding. The following applies: crystal soaked 5 min in 25 mM dTDP; surface entropy reduction mutant WsaFSER2 (b48 prints K78A/E79A/K81A).
Data set [3] addresses T2, WsaF (Geobacillus stearothermophilus, UniProt Q7BG50, R254A).
T2 construct: recombinant WsaF from pET28a-WsaF in E. coli BL21(DE3) Star; residues M1 to L413 mentioned
Kind of data set: isothermal titration calorimetry. The format is binding. The following applies: 20 mM NaP pH 8.5, 50 mM NaCl, 20 °C; one-site model. Background: Isothermal titration calorimetry measures the heat released or taken up as one component is titrated into another.

The target of data set [4] is T3, WsaF (Geobacillus stearothermophilus, UniProt Q7BG50).
T3 construct: recombinant WsaF from pET28a-WsaF in E. coli BL21(DE3) Star; residues M1 to L413 mentioned
T3 sequence (Q7BG50 1-413): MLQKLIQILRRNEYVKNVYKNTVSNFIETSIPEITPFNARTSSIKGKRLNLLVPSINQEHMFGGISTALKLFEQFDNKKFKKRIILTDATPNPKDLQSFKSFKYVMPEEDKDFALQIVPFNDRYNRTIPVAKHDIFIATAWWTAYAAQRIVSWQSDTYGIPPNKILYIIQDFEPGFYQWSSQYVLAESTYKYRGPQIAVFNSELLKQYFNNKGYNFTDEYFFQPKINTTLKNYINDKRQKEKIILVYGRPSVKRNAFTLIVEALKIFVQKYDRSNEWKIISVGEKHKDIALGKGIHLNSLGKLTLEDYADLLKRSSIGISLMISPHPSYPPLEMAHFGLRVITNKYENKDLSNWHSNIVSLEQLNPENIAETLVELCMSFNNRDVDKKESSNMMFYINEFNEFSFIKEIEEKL
The experiment in a line: isothermal titration calorimetry. Type of data set: binding. The settings on record: 20 mM NaP pH 8.5, 50 mM NaCl, 20 °C; one-site model.

Data set [5] concerns the target T4, WsaF (Geobacillus stearothermophilus, UniProt Q7BG50, E333A).
T4 construct: recombinant WsaF from pET28a-WsaF in E. coli BL21(DE3) Star; residues M1 to L413 mentioned
The experiment in a line: isothermal titration calorimetry. The following applies: 20 mM NaP pH 8.5, 50 mM NaCl, 20 °C; one-site model. The format is binding.

Data set [6] concerns the molecule itself. Kind of data set: crystal structure; SeMet-labelled WsaF, space group P2_(1), two molecules in the asymmetric unit, 2.28 Å.

Broadly, the stoichiometry N is a count of units in the complex or per binding partner.

T1 sequence (Q7BG50 entry or part of it K78A/K79A/K81A): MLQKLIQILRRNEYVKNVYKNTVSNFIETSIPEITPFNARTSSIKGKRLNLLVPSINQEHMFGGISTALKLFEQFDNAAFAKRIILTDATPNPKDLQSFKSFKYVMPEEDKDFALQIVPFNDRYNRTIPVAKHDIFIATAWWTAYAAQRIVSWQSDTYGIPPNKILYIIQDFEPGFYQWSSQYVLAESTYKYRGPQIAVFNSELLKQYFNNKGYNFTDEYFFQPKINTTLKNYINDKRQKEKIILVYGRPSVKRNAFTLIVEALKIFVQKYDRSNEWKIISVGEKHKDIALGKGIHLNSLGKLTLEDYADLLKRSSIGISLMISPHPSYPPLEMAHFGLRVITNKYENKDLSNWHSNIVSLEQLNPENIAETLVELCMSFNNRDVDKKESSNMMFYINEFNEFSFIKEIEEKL
T4 sequence (Q7BG50 entry or part of it E333A): as the sequence (Q7BG50 entry or part of it K78A/K79A/K81A) above, with A78K, A79K, A81K, E333A counted along it
T2 sequence (Q7BG50 entry or part of it R254A): as the sequence (Q7BG50 entry or part of it K78A/K79A/K81A) above, with A78K, A79K, A81K, R254A counted along it

As for `Cc1cn([C@H]2C[C@H](O)[C@@H](COP(=O)(O)OP(=O)(O)O[C@H]3O[C@@H](C)[C@H](O)[C@@H](O)[C@H]3O)O2)c(=O)[nH]c1=O` [dTDP-β-L-rhamnose], the “X-ray crystal structure of soaked complex, 2.55 Å” value in data set [1] is “The structures of the dTDP-WsaFSER2 and dTDP-β-L-Rha-WsaFSER2 complexes were obtained by soaking”.
With `Cc1cn([C@H]2C[C@H](O)[C@@H](COP(=O)(O)OP(=O)(O)O)O2)c(=O)[nH]c1=O` [dTDP], in data set [2], the “X-ray crystal structure of soaked complex, 2.81 Å” value was “The structures of the dTDP-WsaFSER2 and dTDP-β-L-Rha-WsaFSER2 complexes were obtained by soaking”. Moreover, the isothermal titration calorimetry entry in data set [3] is “(ITC) of E333A and R254A showed weaker dTDP binding than native WsaF”; in data set [4] it was “showed weaker dTDP binding than native WsaF, when qualitatively comparing the curves (Fig. S3)”; in data set [5] it was “The mutant E333A showed a reduced binding affinity for dTDP”.

B1: SeMet-labelled WsaF from Geobacillus stearothermophilus NRS 2004/3a (enzyme)
chain: T3 sequence (Q7BG50 1-413)
modifications: selenomethionine (SeMet)-labelled
notes: WsaF, beta-1,2-rhamnosyltransferase of Geobacillus stearothermophilus NRS 2004/3a; the structure is described from M1 to L413 (M1-N25, Q58-G63 and N382-E389 with poor or no density); also called SeMet variant WsaF; SeMet-WsaF; source: E. coli BL21(DE3) Star, purified to homogeneity
On to B1, for which the “stoichiometry N” value in data set [6] was 2.

Values taken from PMC3898925 (Journal of Molecular Biology, 2010).
